For one data set, the system named is MC3T3-E1 cells. Nature of the data set: Alkaline phosphatase (ALP) enzymatic activity assay, MC3T3-E1. The class given is cell-based, mouse. The settings on record: MC3T3-E1, 13 days post-treatment. An excerpt:
ALP is an enzyme synthesized by osteoblasts. It hydrolyses phosphoric esters which inhibit the mineralization by releasing a hydroxyl group and a phosphate. The osteoblasts produce matrix vesicles, reservoirs of alkaline phosphatases and ions, which, when released into the extracellular medium, would initiate the mineralization of the osteoid tissue by promoting the local concentrations of calcium ions and phosphates. Cells have been seeded in 6-well plates at 63700 cells/well for MC3T3-E1 and at 182000 cells/well for HOb.
After the PBS rinses, 50 μl of ALP Assay Buffer were added to the wells, the bottom of the wells was scraped and then the 50 μl were taken. A centrifugation for 3 minutes at 13000 G was carried out to remove the insoluble material. In a 96-well plate, 10 μl of each sample to be tested are placed with 70 μl of the ALP Assay buffer and 50 μl of the 5 mM pNPP solution. In parallel, the calibration range was prepared by placing, in the same 96-well plate. The reaction was incubated for 60 min at 25° C., shielded from light. The reaction was stopped by adding 20 μl of the Stop Solution. The optical density was measured at 405 nm.
After the ALP enzymatic activity assay, a protein assay was performed in order to normalize the results of the ALP assay depending on the number of proteins. […] The optical density was measured at 565 nm to determine the amount of proteins.

The nature of data set [1]: Acetate migration DP2/DP2′ in solution (stability). The following applies: in methanol. The class given is physicochemical. On the procedure:
The compound DP2′ was extracted from the DP2-DP2′ mixture which is formed when the compound DP2 is dissolved in water. The compound DP2′ has been separated by preparative HPLC chromatography with water as elution solvent.
The inventors have observed that when the compound DP2′ was in water, the delocalization of the acetate group was also present, but with very slow kinetics compared to the DP2→DP2′ reaction. Thus, a solution of DP2′ in water which is left to rest contains, after 44 days, 10 to 15% of DP2. The DP2′ therefore remains alone in the water for a given duration which is quite long. It is therefore possible to test the biological effect of DP2′ in solution in water.
Similarly, the inventors have observed that the kinetics of the DP2→DP2′ reaction is such that it is also possible to test the biological activity of the compound DP2 alone after extraction of the formed compound DP2′. Thus, the two compounds DP2 and DP2′ can coexist or not in water for a given duration.
In methanol, for example, the compound DP2 is therefore alone.
There is about ⅔ of DP2R2 for ⅓ of DP2′. The compound DP2′ comes from a migration of the acetate group (R2) on the 30H position. The compound DP2′ could be isolated and synthesized as previously indicated. […]

On to `CCCO[C@H]1OC(CO)[C@@H](O[C@@H]2OC(CO)[C@@H](O)C(O)C2NC(C)=O)C(O)C1OC(C)=O` (stereo partly drawn) [DP2, n-propyl, 2-O-acetyl-α-D-Glucopyranoside, 4-O-(2-acetamido-2-deoxy-β-D-glucopyranosyl)], for which the “ALP enzymatic activity relative to the mineralized medium alone (100%)” value is 118.907±10.466% with MC3T3-E1 cells (15 μM) and 148.833±15.761% with MC3T3-E1 cells (printed 15 μM (second mention)). Further, the “delocalization of the acetate group” value in data set [1] is listed as “no delocalization of the acetate group has been observed”.

Source of the values: patent US20240083933A1, “DISACCHARIDES FOR TREATING BONE DISEASES” (UNIVERSITE DE PICARDIE JULES VERNE, priority 2020, published 2024).
